Literature values in patent US7148022B2, “Assay for anti-viral agent” (The University Court of the University of St. Andrews, priority 2000, dated 2006).

Tested on: picornavirus
Settings: background statement, refs 9 and 10

## C[C@H]1CCC/C=C/[C@@H]2C[C@H](O)C[C@H]2[C@H](O)/C=C/C(=O)O1 [Brefeldin-A]
  inhibition of picornavirus replication: one of the most potent known inhibitors
